Assay results as given in US7888332B2, “Hydrazide-containing CFTR inhibitor compounds and uses thereof” (The Regents of the University of California, priority 2004, dated 2011).
Read-outs that look alike come from different tables or passages of the source.

Key:
[1] = Spectrophotometric pH titration (pKa); format: physicochemical
Method: FIG. 5A is a graph illustrating the pH-dependent absorbance changes (right panel) of the chemical compounds (10 μM) (corresponding chemical structures, left panel) in NaCl (100 mM) containing MES, HEPES, boric acid, and citric acid (each 10 mM) titrated to different pH using HCl/NaOH. Absorbance changes measured at analytical wavelengths of 346, 348, 346, and 236 nm (top to bottom).

[2] = molecular target: T1, CFTR (cAMP-stimulated short-circuit current) in human airway cells (Homo sapiens, UniProt P13569); test: Short-circuit current in human airway (primary human bronchial) cells; format: cell-based; settings: primary human bronchial cell cultures
T1 construct: endogenous in cells; host or cells: primary human bronchial epithelial cell cultures
Method: (§1) The efficacy of GlyH-101 in inhibiting cAMP/cholera toxin-induced intestinal fluid secretion was also evaluated. Short-circuit current experiments were done in different cell types and in intact mouse ileum under non-permeabilized conditions and in the absence of a Cl^− gradient. In each case CFTR was activated by CPT-cAMP after ENaC inhibition by amiloride. […] Inhibition was ˜100% at higher GlyH-101 concentrations. Cholera toxin-induced intestinal fluid secretion was measured in an in vivo closed-loop model in which loops for each mouse were injected with saline (control), cholera toxin (1 μg), or cholera toxin (1 μg)+GlyH-101 (0.25 μg). GlyH-101 was added to the lumen (rather than systemically) based on initial studies showing poor intestinal absorption and little effect of systemically administered compound. Compared to the saline control, the cholera toxin-induced increase in fluid secretion over 4 hours, quantified from loop weight-to-length ratio, was 80% reduced by GlyH-101.

[3] = Initial studies of GlyH-101 intestinal absorption and systemic administration; format: in vivo
Method: as §1

CFTR [4] = molecular target: T2, CFTR (Homo sapiens, UniProt P13569); test: Cell-attached patch-clamp, CFTR single channel activity in FRT cells; format: cell-based; parameters: expressed in transfected cells; host or cells: Fisher Rat Thyroid (FRT) cells, stably transfected; settings: for Mean channel open time: +60 mV
Method: Patch-clamp experiments were carried out at room temperature on FRT cells stably expressing wildtype CFTR. Cell-attached and whole-cell configurations were used (Hamill et al., Pflugers Arch. 391:85-100, 1981). The cell membrane was clamped at specified voltages using an EPC-7 patch-clamp amplifier (List Medical). Data were filtered at 500 Hz and digitized at 2000 Hz. For whole-cell experiments the pipette solution contained (in mM): 120 CsCl, 10 TEA-Cl, 0.5 EGTA, 1 MgCl2, 40 mannitol, 10 Cs-HEPES and 3 mM MgATP (pH 7.3). For cell attached experiments EGTA was replaced with 1 mM CaCl2. The bath solution for whole-cell experiments contained (in mM): 150 NaCl, 1 CaCl2, 1 MgCl2, 10 glucose, 10 mannitol, 10 Na-TES (pH 7.4). In cell-attached experiments the bath solution contained (in mM): 130 KCl, 2 NaCl, 2 CaCl2, 2 MgCl2, 10 glucose, 20 mannitol, and 10 K-Hepes (pH 7.3). Inhibitors were applied by extracellular perfusion. CFTR channel activity in cell-attached patches was analyzed as described previously (Taddei et al., FEBS Lett. 558:52-56, 2004).
Cell-attached patch-clamp experiments were carried out to investigate the mechanism of GlyH-101 block of CFTR Cl^− current at the single-channel level. […] In the absence of the inhibitor, mean channel open time was 264±11 ms (SE, n=10). Mean channel open times at +60 mV at 0.4, 1, and 5 μM GlyH-101 were reduced to 181±29, 38±5, and 13±2 ms, respectively (n=5; p<0.01 for all concentrations vs. control).

CFTR [5] = molecular target: T2, CFTR; test: Short-circuit current (apical Cl− current) analysis on permeabilized CFTR-expressing FRT cells
[6] = molecular target: T3, CFTR (cAMP-stimulated short-circuit current) in mouse ileum (Mus musculus, UniProt P26361); test: Short-circuit current in intact mouse ileum
T3 construct: from tissue; host or cells: isolated mouse ileal segments in a micro-Ussing chamber
Method: as §1

[7] = molecular target: upper airway CFTR Cl− conductance (Mus musculus, UniProt P26361); test: Nasal potential difference measurements in mice
[8] = molecular target: T4, CFTR (cAMP-stimulated short-circuit current) in T84 cells (Homo sapiens, UniProt P13569); test: Short-circuit current in non-permeabilized T84 cells; format: cell-based
T4 construct: endogenous in cells; host or cells: T84 colon epithelial cells
Method: as §1

[9] = tested on: cholera toxin-induced intestinal fluid secretion; parameters: species or system mice; settings: mouse, in vivo
[10] = CPT-cAMP after amiloride, read-out: Ki for inhibition of cAMP-stimulated short-circuit current

T2 sequence (P13569 whole entry): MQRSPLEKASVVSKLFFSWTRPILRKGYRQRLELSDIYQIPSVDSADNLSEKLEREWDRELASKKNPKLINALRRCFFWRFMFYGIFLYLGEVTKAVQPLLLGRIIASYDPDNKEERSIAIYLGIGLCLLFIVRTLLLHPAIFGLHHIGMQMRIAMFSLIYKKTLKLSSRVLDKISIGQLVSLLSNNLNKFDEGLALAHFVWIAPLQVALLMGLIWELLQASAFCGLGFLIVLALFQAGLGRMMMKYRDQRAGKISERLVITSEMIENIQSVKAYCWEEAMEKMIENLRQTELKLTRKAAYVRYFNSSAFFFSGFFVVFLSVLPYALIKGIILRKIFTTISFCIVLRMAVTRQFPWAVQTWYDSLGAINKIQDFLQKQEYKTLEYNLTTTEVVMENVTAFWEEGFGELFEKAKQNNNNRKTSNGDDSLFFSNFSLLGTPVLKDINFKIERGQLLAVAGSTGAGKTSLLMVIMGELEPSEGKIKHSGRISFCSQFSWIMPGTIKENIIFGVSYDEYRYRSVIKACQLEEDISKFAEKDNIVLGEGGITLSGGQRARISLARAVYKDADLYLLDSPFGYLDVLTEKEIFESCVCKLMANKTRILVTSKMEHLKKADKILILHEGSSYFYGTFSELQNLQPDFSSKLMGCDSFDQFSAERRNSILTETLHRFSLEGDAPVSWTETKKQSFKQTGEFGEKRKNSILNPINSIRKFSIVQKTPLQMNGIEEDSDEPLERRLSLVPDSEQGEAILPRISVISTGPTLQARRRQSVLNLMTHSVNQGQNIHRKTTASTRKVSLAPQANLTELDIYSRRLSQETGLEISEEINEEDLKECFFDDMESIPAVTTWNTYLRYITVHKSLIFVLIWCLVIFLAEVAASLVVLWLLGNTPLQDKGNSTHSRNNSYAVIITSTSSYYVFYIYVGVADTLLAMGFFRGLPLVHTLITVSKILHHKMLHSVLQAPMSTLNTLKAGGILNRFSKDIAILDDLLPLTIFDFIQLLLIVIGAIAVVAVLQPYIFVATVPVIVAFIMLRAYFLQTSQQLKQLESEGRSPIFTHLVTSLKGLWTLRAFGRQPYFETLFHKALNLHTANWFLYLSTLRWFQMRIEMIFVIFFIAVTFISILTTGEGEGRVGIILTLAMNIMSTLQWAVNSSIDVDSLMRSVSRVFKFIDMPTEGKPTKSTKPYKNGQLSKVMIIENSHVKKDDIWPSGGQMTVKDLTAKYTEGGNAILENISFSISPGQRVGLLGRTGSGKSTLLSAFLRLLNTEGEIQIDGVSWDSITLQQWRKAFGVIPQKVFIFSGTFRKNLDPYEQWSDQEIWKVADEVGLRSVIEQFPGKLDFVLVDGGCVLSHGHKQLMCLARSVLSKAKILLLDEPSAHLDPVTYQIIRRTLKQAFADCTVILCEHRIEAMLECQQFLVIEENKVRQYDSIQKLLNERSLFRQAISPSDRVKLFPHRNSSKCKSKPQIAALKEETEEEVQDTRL
upper airway CFTR Cl− conductance, sequence (P26361 whole entry): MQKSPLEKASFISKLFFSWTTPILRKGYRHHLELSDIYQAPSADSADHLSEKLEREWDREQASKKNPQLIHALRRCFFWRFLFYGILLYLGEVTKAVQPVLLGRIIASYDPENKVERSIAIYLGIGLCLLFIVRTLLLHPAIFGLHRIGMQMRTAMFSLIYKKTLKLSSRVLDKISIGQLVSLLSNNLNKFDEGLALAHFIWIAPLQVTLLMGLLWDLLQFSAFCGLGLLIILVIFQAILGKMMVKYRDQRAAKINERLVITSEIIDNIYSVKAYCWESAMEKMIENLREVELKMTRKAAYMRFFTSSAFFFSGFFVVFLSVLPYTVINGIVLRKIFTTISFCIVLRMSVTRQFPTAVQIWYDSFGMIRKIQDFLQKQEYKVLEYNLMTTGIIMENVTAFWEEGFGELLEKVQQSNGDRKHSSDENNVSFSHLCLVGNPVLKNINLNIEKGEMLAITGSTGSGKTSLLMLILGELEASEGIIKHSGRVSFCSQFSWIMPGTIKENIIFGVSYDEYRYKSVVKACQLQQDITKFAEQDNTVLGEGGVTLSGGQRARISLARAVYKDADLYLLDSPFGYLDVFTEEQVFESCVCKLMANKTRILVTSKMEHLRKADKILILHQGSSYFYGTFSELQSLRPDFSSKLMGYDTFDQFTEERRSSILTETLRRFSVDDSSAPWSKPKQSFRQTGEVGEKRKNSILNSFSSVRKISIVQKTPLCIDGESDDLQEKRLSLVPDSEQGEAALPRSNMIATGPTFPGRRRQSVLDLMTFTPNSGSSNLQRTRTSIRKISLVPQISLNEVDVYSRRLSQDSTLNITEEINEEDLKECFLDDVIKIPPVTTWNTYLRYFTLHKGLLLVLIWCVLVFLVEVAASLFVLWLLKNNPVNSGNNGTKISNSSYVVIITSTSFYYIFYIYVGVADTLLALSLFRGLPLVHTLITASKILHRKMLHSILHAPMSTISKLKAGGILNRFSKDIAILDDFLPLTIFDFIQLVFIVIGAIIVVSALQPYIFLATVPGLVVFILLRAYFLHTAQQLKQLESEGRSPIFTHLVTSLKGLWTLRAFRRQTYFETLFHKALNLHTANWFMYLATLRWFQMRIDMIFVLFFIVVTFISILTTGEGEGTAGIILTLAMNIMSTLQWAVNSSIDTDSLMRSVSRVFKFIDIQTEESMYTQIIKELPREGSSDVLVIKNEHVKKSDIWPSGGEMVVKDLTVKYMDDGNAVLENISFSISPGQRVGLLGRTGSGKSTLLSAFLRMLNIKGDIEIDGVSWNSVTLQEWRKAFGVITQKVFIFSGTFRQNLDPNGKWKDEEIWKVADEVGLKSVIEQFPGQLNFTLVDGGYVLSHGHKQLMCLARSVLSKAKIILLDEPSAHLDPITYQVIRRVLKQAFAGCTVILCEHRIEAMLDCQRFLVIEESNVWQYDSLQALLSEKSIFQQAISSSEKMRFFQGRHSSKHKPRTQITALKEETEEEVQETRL
T1 sequence (P13569 whole entry): as the sequence (P13569 whole entry) above
T4 sequence (P13569 whole entry): as above
T3 sequence (P26361 whole entry): as the sequence (P26361 whole entry) above

## O=C(CNc1ccc2ccccc2c1)NN=Cc1cc(Br)c(O)c(Br)c1O [GlyH-101, N-2-napthalenyl-[(3,5-dibromo-2,4-dihydroxyphenyl)methylene]glycine hydrazide]
[1]
  pKa, first (para) phenolic hydroxyl: ~5.5
  pKa, second ortho hydroxyl: ~8.5
  pKa, secondary amine: ~4.7
[1]; pH between 6 and 8
  ionic form: singly charged anion
[2]
  Inhibition at higher concentrations: ~100%
[2]; [10]
  Ki: ~5 µM
[3]
  effect of systemically administered compound: little effect
  intestinal absorption: poor
CFTR [4]; 0.4-5 μM
  change in single channel conductance: without a change
CFTR [4]; 0.4 μM GlyH-101
  Mean channel open time: 181 ± 29 ms
CFTR [4]; 1 μM GlyH-101
  Mean channel open time: 38 ± 5 ms
CFTR [4]; 5 μM GlyH-101
  Mean channel open time: 13 ± 2 ms
CFTR [5]; Table 1, Group I, 50 μM
  % inhibition at 50 μM: 95%
CFTR [5]; Table 1, Group I, concentration giving 50% inhibition of CFTR Cl− conductance
  Ki: 5 µM
CFTR [5]; pH range 6-8
  pH dependence of Ki for inhibition of CFTR Cl− current: independent of pH
CFTR [5]; read-out: Ki of screening hits, dose-response measurements, confirmed by short-circuit current analysis
  Ki: ~5 µM
[6]
  Inhibition at higher concentrations: ~100%
[6]; [10]
  Ki: ~5 µM
[7]; after ˜4 mV hyperpolarization by forskolin
  PD change (ΔPD), paired analysis: depolarization of similar magnitude
[7]; compound in all solutions (10 μM)
  inhibition of forskolin-induced hyperpolarization: substantial inhibition
[7]; topical in perfusate, 10 μM
  effect on forskolin-induced hyperpolarization of nasal PD: rapidly reversed
[8]
  Inhibition at higher concentrations: ~100%
[8]; [10]
  Ki: ~5 µM
[9]
  reduction of cholera toxin-induced increase in fluid secretion (loop weight-to-length ratio): 80%
Water solubility
  water solubility compared to CFTRinh-172: 50 fold
Water solubility; in water, 22° C., pH 6-8
  water solubility: 800 to 1300 µM
